According to ChEMBL document CHEMBL1150977, “A quantitative analysis of kinase inhibitor selectivity” (Nat Biotechnol, 2008):

How the values were obtained:
[1] = molecular target: T1, Myotonin-protein kinase (Homo sapiens, UniProt Q09013)
T1 sequence (Q09013 whole entry): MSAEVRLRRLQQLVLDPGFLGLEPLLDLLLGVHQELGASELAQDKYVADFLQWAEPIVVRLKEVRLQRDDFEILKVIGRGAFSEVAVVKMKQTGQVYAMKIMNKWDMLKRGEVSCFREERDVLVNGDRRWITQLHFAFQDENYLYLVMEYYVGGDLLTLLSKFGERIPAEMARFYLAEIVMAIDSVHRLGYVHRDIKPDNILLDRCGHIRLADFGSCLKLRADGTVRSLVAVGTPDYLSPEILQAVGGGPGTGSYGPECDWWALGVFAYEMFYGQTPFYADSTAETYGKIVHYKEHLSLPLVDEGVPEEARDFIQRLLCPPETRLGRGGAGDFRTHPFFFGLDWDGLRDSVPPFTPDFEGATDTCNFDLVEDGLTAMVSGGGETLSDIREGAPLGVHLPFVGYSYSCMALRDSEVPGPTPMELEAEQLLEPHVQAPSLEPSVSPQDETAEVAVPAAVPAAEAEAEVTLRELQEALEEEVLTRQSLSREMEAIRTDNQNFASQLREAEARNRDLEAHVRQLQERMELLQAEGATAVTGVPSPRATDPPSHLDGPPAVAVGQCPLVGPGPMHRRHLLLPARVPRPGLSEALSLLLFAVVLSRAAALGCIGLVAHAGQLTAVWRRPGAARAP

[2] = molecular target: Mitogen-activated protein kinase kinase kinase kinase 1 (Homo sapiens, UniProt Q92918)
[3] = molecular target: Dual specificity mitogen-activated protein kinase kinase 1 (Homo sapiens, UniProt Q02750)
[4] = molecular target: Fibroblast growth factor receptor 1 (Homo sapiens, UniProt P11362)
[5] = molecular target: Myosin light chain kinase, smooth muscle (Homo sapiens, UniProt Q15746)
[6] = molecular target: Ribosomal protein S6 kinase alpha-3 (Homo sapiens, UniProt P51812)
[7] = molecular target: Serine/threonine-protein kinase pim-3 (Homo sapiens, UniProt Q86V86)
[8] = molecular target: Tyrosine-protein kinase Lck (Homo sapiens, UniProt P06239)
[9] = molecular target: Tyrosine-protein kinase ABL1 (Homo sapiens, UniProt P00519, M351T)
[10] = molecular target: Fibroblast growth factor receptor 4 (Homo sapiens, UniProt P22455)
[11] = molecular target: Dual specificity testis-specific protein kinase 1 (Homo sapiens, UniProt Q15569)
[12] = molecular target: T2, Phosphatidylinositol 5-phosphate 4-kinase type-2 beta (Homo sapiens, UniProt P78356)
T2 sequence (P78356 whole entry): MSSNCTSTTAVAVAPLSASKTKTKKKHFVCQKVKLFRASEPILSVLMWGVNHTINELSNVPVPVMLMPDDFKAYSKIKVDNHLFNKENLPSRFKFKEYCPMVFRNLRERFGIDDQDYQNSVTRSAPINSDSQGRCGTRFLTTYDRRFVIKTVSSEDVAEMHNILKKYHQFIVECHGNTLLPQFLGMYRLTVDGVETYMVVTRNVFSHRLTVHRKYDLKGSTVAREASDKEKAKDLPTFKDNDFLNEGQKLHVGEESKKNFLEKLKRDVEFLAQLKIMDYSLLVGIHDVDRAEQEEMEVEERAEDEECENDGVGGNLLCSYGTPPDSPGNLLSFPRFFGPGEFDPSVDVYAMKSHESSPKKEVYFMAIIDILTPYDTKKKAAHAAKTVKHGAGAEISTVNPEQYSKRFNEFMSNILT

[13] = molecular target: Receptor-type tyrosine-protein kinase FLT3 (Homo sapiens, UniProt P36888, ITD)
[14] = molecular target: Ephrin type-A receptor 2 (Homo sapiens, UniProt P29317)
[15] = molecular target: Tyrosine-protein kinase Srms (Homo sapiens, UniProt Q9H3Y6)
[16] = molecular target: Cyclin-dependent kinase 2 (Homo sapiens, UniProt P24941)
[17] = molecular target: Mast/stem cell growth factor receptor Kit (Homo sapiens, UniProt P10721, T670I/V559D)
[18] = molecular target: Mitogen-activated protein kinase kinase kinase 11 (Homo sapiens, UniProt Q16584)
Sequence of Mitogen-activated protein kinase kinase kinase 11 (Q16584 whole entry): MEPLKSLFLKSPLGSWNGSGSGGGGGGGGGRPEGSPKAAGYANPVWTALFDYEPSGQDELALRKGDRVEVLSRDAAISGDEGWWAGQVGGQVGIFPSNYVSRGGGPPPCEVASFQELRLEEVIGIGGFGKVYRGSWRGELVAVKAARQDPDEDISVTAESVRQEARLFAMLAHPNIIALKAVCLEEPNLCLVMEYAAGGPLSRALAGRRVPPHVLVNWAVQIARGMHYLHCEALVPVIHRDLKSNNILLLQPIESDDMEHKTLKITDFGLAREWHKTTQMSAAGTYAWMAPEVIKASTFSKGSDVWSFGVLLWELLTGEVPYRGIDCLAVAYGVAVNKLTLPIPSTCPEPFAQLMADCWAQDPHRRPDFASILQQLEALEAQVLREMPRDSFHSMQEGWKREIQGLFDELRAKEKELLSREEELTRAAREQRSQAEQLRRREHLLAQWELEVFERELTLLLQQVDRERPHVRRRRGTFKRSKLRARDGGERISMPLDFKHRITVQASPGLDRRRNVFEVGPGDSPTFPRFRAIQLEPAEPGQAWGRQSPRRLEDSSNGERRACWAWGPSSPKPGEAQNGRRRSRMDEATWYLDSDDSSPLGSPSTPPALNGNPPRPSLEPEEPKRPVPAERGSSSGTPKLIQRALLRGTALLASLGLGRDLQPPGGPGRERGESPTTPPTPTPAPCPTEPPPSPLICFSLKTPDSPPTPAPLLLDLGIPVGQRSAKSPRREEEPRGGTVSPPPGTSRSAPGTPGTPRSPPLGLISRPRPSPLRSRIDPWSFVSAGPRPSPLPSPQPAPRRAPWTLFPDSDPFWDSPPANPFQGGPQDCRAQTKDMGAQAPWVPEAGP

Sequence of Receptor-type tyrosine-protein kinase FLT3 (P36888 whole entry, looked up, change not shown): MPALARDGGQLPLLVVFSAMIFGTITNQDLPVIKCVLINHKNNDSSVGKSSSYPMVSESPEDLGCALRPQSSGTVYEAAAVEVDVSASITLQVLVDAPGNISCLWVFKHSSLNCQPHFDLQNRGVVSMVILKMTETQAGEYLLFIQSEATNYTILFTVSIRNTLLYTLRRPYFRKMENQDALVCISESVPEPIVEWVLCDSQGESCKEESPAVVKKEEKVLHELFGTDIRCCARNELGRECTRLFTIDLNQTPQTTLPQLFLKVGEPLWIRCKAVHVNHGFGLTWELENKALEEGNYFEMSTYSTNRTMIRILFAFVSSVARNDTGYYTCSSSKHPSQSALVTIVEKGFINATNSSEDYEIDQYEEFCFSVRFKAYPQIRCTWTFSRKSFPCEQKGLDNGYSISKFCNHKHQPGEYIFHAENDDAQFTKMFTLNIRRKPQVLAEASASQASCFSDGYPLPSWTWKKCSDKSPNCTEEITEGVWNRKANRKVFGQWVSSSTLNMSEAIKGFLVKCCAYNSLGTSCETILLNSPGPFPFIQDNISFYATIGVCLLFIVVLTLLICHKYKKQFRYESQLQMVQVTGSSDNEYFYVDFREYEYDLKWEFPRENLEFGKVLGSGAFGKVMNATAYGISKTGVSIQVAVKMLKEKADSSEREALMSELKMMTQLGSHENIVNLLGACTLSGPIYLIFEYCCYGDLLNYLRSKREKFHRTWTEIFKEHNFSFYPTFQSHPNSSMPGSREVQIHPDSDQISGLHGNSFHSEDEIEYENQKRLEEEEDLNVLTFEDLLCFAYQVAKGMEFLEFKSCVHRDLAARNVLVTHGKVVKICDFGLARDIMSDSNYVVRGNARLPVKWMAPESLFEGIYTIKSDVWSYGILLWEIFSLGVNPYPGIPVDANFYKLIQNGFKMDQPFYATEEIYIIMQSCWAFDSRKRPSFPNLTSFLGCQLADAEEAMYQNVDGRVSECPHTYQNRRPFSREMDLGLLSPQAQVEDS
Sequence of Dual specificity mitogen-activated protein kinase kinase 1 (Q02750 whole entry): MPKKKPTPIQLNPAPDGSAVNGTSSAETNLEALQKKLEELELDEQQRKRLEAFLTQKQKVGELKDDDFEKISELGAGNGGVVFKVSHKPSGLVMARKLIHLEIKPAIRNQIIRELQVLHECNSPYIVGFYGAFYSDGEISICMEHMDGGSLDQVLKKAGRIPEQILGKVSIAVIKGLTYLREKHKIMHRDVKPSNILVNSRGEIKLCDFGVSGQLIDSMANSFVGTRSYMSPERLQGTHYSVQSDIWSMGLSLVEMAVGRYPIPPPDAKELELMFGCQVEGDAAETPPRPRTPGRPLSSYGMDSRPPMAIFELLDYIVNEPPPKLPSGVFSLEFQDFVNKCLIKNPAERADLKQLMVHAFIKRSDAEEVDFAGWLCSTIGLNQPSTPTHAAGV
Sequence of Ribosomal protein S6 kinase alpha-3 (P51812 whole entry): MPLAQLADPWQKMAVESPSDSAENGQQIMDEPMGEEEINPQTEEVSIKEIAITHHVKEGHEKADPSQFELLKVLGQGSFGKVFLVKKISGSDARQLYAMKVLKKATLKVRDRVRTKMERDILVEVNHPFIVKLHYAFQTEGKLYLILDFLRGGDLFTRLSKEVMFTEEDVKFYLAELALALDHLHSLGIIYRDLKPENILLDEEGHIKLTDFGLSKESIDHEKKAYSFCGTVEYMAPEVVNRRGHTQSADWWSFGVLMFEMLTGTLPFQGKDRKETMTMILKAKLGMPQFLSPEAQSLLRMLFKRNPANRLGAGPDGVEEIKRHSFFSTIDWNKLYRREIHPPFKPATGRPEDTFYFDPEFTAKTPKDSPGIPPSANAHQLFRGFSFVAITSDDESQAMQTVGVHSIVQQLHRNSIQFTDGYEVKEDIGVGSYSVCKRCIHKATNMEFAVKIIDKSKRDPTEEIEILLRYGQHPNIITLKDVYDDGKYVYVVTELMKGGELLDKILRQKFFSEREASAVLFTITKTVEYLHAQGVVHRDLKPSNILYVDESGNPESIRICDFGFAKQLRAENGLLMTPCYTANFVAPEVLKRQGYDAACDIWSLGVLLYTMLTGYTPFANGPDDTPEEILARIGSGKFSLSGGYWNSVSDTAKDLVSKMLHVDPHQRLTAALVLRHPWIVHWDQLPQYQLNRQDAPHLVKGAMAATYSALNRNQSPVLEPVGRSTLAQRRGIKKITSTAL
Sequence of Ephrin type-A receptor 2 (P29317 whole entry): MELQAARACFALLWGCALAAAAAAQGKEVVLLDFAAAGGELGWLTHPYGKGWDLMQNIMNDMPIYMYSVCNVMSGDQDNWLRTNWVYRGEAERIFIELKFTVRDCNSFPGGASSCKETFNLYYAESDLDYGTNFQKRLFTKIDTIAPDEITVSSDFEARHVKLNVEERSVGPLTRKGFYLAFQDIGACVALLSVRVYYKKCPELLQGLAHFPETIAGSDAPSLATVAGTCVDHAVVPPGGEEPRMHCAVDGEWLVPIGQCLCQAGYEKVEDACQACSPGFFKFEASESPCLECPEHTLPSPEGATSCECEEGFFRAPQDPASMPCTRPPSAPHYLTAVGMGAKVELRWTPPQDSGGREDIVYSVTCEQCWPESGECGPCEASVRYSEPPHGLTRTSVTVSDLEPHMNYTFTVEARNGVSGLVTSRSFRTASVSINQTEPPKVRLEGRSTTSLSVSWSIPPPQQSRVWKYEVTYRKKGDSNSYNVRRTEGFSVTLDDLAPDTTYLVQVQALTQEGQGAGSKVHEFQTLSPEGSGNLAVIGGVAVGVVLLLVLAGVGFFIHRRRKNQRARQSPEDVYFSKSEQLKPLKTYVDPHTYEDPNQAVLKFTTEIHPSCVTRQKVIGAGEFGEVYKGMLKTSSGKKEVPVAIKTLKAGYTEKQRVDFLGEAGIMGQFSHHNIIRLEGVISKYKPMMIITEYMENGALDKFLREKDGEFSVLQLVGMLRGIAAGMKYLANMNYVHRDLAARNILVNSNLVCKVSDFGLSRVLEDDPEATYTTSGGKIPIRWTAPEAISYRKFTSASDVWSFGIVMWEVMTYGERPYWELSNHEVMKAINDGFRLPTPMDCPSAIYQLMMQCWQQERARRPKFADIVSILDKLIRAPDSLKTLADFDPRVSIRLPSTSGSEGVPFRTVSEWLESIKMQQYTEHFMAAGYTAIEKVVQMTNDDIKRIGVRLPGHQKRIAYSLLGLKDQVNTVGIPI
Sequence of Fibroblast growth factor receptor 4 (P22455 whole entry): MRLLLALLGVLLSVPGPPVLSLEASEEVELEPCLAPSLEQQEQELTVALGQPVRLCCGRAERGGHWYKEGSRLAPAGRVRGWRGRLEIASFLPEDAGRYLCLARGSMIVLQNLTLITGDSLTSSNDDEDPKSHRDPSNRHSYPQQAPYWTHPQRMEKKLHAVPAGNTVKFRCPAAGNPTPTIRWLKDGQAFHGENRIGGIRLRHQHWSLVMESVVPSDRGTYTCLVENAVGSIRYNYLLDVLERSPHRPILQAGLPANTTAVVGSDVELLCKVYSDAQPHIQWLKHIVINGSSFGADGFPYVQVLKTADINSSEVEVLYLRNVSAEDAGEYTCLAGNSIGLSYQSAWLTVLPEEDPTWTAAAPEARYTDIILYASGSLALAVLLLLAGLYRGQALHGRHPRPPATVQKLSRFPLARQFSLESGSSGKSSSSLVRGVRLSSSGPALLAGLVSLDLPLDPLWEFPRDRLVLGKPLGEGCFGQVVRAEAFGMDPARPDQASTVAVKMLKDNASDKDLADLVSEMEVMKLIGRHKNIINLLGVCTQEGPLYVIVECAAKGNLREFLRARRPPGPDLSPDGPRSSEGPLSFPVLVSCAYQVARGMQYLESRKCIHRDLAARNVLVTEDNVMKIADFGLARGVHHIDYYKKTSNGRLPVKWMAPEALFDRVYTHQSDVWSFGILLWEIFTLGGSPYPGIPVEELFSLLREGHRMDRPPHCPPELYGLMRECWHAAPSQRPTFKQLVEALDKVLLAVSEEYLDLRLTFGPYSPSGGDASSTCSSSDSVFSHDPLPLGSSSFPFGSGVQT

Compound | Kd [1] [µM] | Kd [2] [µM] | Kd [3] [µM] | Kd [4] [µM] | Kd [5] [µM] | Kd [6] [µM] | Kd [7] [µM] | Kd [8] [µM] | Kd [9] [µM] | Kd [10] [µM] | Kd [11] [µM] | Kd [12] [µM] | Kd [13] [µM] | Kd [14] [µM] | Kd [15] [µM] | Kd [16] [µM] | Kd [17] [µM] | Kd [18] [µM]
COCC(=O)NC/C=C/c1ccc2ncnc(Nc3ccc(Oc4ccc(C)nc4)c(C)c3)c2c1 [CP-724714] | > 10 | > 10 | > 10 | > 10 | > 10 | > 10 | > 10 | > 10 | > 10 | > 10 | > 10 | > 10 | > 10 | > 10 | > 10 | > 10 | > 10 | 
CCOc1cc2ncc(C#N)c(Nc3ccc(F)c(Cl)c3)c2cc1NC(=O)/C=C/CN(C)C [PELITINIB] | 0.059 |  |  | > 10 | > 10 | > 10 | > 10 |  |  | > 10 | > 10 |  | > 10 | > 10 | > 10 | > 10 | > 10 | 
NC(=O)c1ccc(-c2nc(-c3ccc4c(c3)OCO4)c(-c3ccccn3)[nH]2)cc1 [SB-431542] | > 10 | > 10 | > 10 | > 10 | > 10 | > 10 | > 10 | > 10 | > 10 | > 10 |  | > 10 |  | > 10 | > 10 |  | > 10 | > 10
CCN1CCN(Cc2ccc(NC(=O)Nc3ccc(Oc4cc(NC)ncn4)cc3)cc2C(F)(F)F)CC1 [AST-487] |  |  |  |  |  |  |  |  |  |  |  |  |  |  |  |  |  | > 10
Nc1nc(Nc2ccc(S(N)(=O)=O)cc2)nn1C(=O)c1c(F)cccc1F [JNJ-7706621] |  | 0.12 |  |  |  |  | > 10 |  |  | > 10 | 3.1 |  |  | > 10 | > 10 |  |  | > 10
Oc1ccc(-c2nc(-c3ccncc3)c(-c3ccc(F)cc3)[nH]2)cc1 [SB-202190] | > 10 | > 10 | > 10 | > 10 | > 10 | > 10 | > 10 | > 10 | > 10 | > 10 | > 10 | > 10 | > 10 | > 10 | > 10 | > 10 | > 10 | > 10
